The subject of one test is Met. The test can be described thus: HGF-induced Met activation in HeLa cells (western blot). Type of test: cell-based, human. The note with it: HGF 25 ng/ml, peptide 10 minutes before induction. The method, then: (§1) FIG. 12: A: Activation of Met and signal transduction induced by HGF depends on CD44v6 in L3.6p1 cells. L3.6p1 cells were treated with the human v6 peptide (human v6 14mer) or the rat v6 peptide as control prior to induction with 10 ng/ml HGF. Activation of Met and ERK was determined in western blot. The numbers refer to the fold induction. The experiment was repeated at least 5 times. B: Activation of c-Met and signal transduction induced by HGF depends on CD44v6 HeLa cells. Starved HeLa cells respectively HT29 cells were incubated with the v6 peptide (human v6 14mer) or a control peptide for 10 minutes at 37° C. and then induced with 25 ng/ml of HGF for the indicated time points. Cells were then either lysed and the lysates were subjected to Western Blot analysis for phospho-Met and Met. C: Activation of c-Met and signal transduction induced by HGF depends on CD44v6 in HT29 cells. HGF-induced c-Met and Erk phosphorylation in HT29 was determined as described above using phospho-specific antibodies. […]
(§2) The contribution of CD44v6 to Met signaling in the human epithelial pancreatic cancer cells L3.6p1 (derived from Colo 357), the cervix carcinoma cells HeLa and the colon cancer cells HT29 were analysed using the CD44v6 peptide (v6 14mer; v6 5mer tested as well, data not shown).
(In general: In western blotting, separated proteins are transferred to a membrane and probed.)

A further test concerns ErbB receptors. Kind of test: ErbB ligand-induced Erk-kinase phosphorylation in HT29 cells. The class given is cell-based, human. As to conditions: 100 ng/ml peptide; for inhibition of EGF-dependent Erk phosphorylation: 20 ng/ml EGF. The method, then: Serum-starved HT29 cells were pre-incubated for 5 min with 100 ng/ml of a CD44v6-specific peptide (human v6 14mer) or a control peptide. Afterwards the cells were induced with 20 ng/ml of various ErbB ligands as indicated. The cell lysates were resolved by SDS-PAGE. Western-blotting was used to detect ErbB ligands-induced Erk-kinase phosphorylation.
Serum-starved HT29 cells were pre-incubated for 5 min with 100 ng/ml of CD44v6-specific peptide (pep1=14mer, pep2=5mer) or a control peptide. Afterwards the cells were induced with 20 ng/ml of EGF or TGFα and lysed. The cell lysates were resolved by SDS-PAGE. Western-blotting was used to detect EGF and TGFα induced Erk-kinase phosphorylation.
For this purpose HT29 cells were serum-starved for 24 hours and pre-treated with the v6-specific or a control peptide. They were then induced with the indicated ErbB ligands. Erk-kinase phosphorylation was used as a read-out for receptor activation. All ligands could activate the Erk-kinase.

In a further test the test system is Erk phosphorylation. The test can be described thus: EGF- and TGFα-induced Erk phosphorylation in MCF7 cells. The class given is cell-based, human.
In the next test the test system is VEGF. The test can be described thus: Human VEGF in cell culture supernatant of L3.6p1 cells (Quantikine immunoassay). Type of test: cell-based. The note with it: 200 ng/ml peptide in the culture medium, 5 days. The method, then: Determination of human HGF and VEGF levels in cell culture medium of L3.6p1 cells were performed using the Quantikine Human HGF Immunoassay and Quantikine Human VEGF Immunoassay from […]. For this purpose 3×10^6 cells were cultured for 5 days in a 15 cm plate in the presence of the respective peptides as indicated. The supernatant (20 ml) was centrifuged (1200 rpm) and the assay was performed according to manufacturer's instructions.

The subject of test [1] is Met activation and downstream signaling to ERK. The test can be described thus: HGF-induced activation of Met and ERK in L3.6p1 cells (western blot). Type of test: cell-based, human. As to conditions: HGF 10 ng/ml. The method, then:
Serum-starved cells (24 hours) were induced with the growth factor HGF (10 ng/mL) at 37° C. for 5 minutes. Where indicated, the cells were treated with peptides (100 ng/ml) prior to induction at 37° C. for 10 minutes (100 ng/mL CD44v6 peptide or control peptide). Following the induction with HGF, cells were washed with ice-cold phosphate-buffered saline (PBS). To detect activated Met and Erk, cells were lysed in sodium dodecyl sulfate (SDS)-sample buffer containing 100 mM dithiothreitol (DTT), boiled and subjected to western blot analysis using antibodies against phospho-Met and ERK. The loading controls were performed on the same blot after stripping (62.5 mM Tris, pH 6.8, 2% SDS, 0.8% DTT) by probing with the Met respectively ERK antibody. Blots were stained using the enhanced chemiluminescence system (Thermo Fisher Scientific, Schwerte, Germany). Bands in western blot analysis were quantified with the program Image J (National Institutes of Health).
To expand the studies to human pancreatic tumors, the highly metastatic human pancreatic carcinoma cells L3.6p1 (Bruns, et al. Neoplasia (1999), 1(1):50-62) were investigated. These cells originate from the […] cells that have been passaged several times in the liver and the pancreas, a step that rendered them more and more metastatic. It was confirmed that Met is dependent on CD44v6 for its activation and signaling in these cells (FIG. 4A). The L3.6p1 cells were treated with HGF in the presence or absence of a human v6 peptide of SEQ ID NO: 2 or SEQ ID NO:6 and Met activation and downstream signaling to ERK was measured.

Test [2] concerns c-Met and Erk phosphorylation. The test can be described thus: HGF-induced c-Met and Erk phosphorylation in HT29 cells (western blot). Type of test: cell-based, human. The protocol: as §1, §2
Test [3] deals with L3.6p1 pancreatic carcinoma cells. The test can be described thus: Human orthotopic model, L3.6p1 cells in the pancreas of nude mice. The class given is in vivo, mouse. The note with it: dose reduction experiment, 0.2 to 20 μg per injection three times per week for 3 weeks.

“Also recorded” adds a separate entry of the source.

As for “KEQWFGNRWHEGYR [human 14mer, human CD44v6 14mer peptide]”, the “inhibition of HGF-induced activation of Met and Erk” value with Met is “able to prevent activation of Met and of its downstream target Erk”; in test [2] it was “able to prevent activation of Met and of its downstream target Erk”. Moreover, the “inhibition of EGF-dependent Erk phosphorylation” value in the test on ErbB receptors (listed as human v6 14mer) is “inhibited”; with ErbB receptors (listed as pep1), “can be blocked”. Moreover, in the test with ErbB receptors (20 ng/ml ER), the “inhibition of ER-dependent Erk phosphorylation” value is “inhibited”. Further, in the test on ErbB receptors (20 ng/ml ligand), the “inhibition of ErbB receptor induction via TGF-α, BC, Her, HB-EGF or AR (Erk phosphorylation)” value is listed as “completely independent of CD44v6”. Besides, the “Erk phosphorylation upon EGF treatment” value in the test with Erk phosphorylation was “blocking of Erk phosphorylation”. Also, in the test on Erk phosphorylation, the “Erk phosphorylation upon TGFα induction” value is recorded as “not upon TGFα induction”. In the test on VEGF, the “hVEGF secretion by L3.6p1 cells” value is listed as “can be blocked”. Also, the “inhibition of HGF-induced activation (phosphorylation) of Met and ERK” value in test [1] was “able to prevent activation of Met and of its downstream target Erk”; in test [1] (listed as SEQ ID NO:6), “Phosphorylation of both Met and ERK was inhibited”. For the same sequence, in test [3], the “size / growth of the primary tumor” value was “significant decrease of the size of the primary tumor; also recorded: reduces growth of the primary tumor”.
